From article PMC8102066 (eLife, 2021)
Where “and” joins values, the source holds several entries; their conditions need not be identical. Equal entries are not always repeated. Where two headings read alike, the source gives them in different places.

How the values were obtained:
mGluR3-S686A = mGluR3-S686A (Rattus norvegicus, UniProt P31422, S686A); test: Calcium imaging in HEK 293 T cells
mGluR2-C121A = target: T1, mGluR2-C121A (Rattus norvegicus, UniProt P31421, C121A); test: SiMPull subunit counting in the presence of ligands; conditions: SNAP-mGluR2-C121A in presence of the ligand; single replicates per experiment day
T1 construct: expressed in transfected cells; host or cells: HEK 293 T (detergent lysate, pulled down by anti-HA antibody)
T1 sequence (P31421 19-872 C121A): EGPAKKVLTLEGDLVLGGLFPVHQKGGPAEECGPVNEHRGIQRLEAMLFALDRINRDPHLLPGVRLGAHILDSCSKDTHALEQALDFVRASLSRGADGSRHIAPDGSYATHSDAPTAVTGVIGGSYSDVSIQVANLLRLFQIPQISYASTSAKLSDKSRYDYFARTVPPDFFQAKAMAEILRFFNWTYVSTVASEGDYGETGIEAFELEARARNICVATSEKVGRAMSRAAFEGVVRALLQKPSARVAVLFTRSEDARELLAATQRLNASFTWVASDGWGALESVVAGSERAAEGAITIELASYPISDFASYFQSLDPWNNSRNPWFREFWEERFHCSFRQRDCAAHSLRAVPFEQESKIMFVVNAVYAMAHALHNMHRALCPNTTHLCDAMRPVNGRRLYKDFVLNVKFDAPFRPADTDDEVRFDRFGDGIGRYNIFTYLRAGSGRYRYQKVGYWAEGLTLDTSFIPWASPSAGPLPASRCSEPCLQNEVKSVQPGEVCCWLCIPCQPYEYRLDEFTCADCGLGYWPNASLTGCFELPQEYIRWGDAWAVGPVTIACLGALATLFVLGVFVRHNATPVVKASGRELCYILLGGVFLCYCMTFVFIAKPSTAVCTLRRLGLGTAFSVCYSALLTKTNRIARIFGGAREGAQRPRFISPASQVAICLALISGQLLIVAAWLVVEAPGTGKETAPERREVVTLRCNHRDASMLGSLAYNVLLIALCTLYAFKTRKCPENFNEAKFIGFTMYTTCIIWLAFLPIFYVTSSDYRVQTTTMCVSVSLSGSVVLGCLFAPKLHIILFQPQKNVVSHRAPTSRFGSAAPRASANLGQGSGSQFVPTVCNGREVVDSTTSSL

mGluR2-3xTM4_W = target: T2, mGluR2-3xTM4_W (Rattus norvegicus, UniProt P31421, A677W/A681W/A685W); test: Calcium imaging in HEK 293 T cells; assay type: cell-based; conditions: normalized to 1 mM glutamate, replicates
T2 construct: expressed in transfected cells; host or cells: HEK 293 T
T2 sequence (P31421 19-872 A677W/A681W/A685W): as the sequence (P31421 19-872 C121A) above, with A103C, A659W, A663W, A667W counted along it
Description: (§1) We tested this by introducing bulky, hydrophobic tryptophan residues into outward facing residues of TM4 to disrupt inter-subunit interaction.
(§2) Approximately 30 ROIs were analyzed per movie.

mGluR3-3xTM4_W = target: T3, mGluR3-3xTM4_W (Rattus norvegicus, UniProt P31422, F690W/G694W/S686W); test: Calcium imaging in HEK 293 T cells; assay type: cell-based; conditions: for Calcium response amplitude: normalized to saturating glutamate
T3 construct: expressed in transfected cells; host or cells: HEK 293 T
T3 sequence (P31422 23-879 S686W/F690W/G694W): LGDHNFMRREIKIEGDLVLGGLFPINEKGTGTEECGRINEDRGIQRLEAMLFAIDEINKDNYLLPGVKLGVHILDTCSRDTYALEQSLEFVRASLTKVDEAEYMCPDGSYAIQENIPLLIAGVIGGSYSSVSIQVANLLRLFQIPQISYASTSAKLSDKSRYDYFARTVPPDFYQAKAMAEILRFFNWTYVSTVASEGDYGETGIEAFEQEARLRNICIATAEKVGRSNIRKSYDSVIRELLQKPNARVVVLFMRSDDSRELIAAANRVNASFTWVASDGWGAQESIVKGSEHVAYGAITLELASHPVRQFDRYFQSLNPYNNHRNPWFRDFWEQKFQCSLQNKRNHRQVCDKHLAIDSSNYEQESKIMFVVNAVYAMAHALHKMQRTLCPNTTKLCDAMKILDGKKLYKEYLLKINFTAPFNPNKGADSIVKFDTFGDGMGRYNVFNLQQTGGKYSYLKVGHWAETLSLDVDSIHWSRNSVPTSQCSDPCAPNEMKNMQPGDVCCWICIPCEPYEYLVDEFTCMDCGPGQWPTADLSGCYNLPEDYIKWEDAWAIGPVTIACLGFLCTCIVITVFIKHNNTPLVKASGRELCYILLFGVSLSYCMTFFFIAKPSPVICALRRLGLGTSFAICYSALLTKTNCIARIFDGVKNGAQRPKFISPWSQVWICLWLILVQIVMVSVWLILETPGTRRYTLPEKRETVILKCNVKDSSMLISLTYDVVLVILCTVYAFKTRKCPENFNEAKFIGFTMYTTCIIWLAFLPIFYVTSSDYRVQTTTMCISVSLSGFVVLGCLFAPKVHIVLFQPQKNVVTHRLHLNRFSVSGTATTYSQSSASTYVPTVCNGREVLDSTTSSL
Description: as §1, §2

mGluR2-3xTM4 = mGluR2-3xTM4 (Rattus norvegicus, UniProt P31421, A677S/A681F/A685G); test: Calcium imaging (G protein chimera, GCaMP6f) in HEK 293 T cells; conditions: normalized to 1 mM glutamate, replicates
Sequence of mGluR2-3xTM4 (P31421 19-872 A677S/A681F/A685G): as the sequence (P31421 19-872 C121A) above, with A103C, A659S, A663F, A667G counted along it

mGluR3-3xTM4 = mGluR3-3xTM4 (Rattus norvegicus, UniProt P31422, F690A/G694A/S686A); test: as above; conditions: for Calcium response amplitude: normalized to 1 mM glutamate, replicates
Sequence of mGluR3-3xTM4 (P31422 23-879 S686A/F690A/G694A): as the sequence (P31422 23-879 S686W/F690W/G694W) above, with W664A, W668A, W672A counted along it

mGluR2-A726S-G730I-A733T = target: T4, mGluR2-A726S-G730I-A733T (Rattus norvegicus, UniProt P31421, A726S/A733T/G730I); test: Calcium imaging in HEK 293 T cells; assay type: cell-based
T4 construct: calcium imaging experiments with mutations in the full-length mGluR2 background; expressed in transfected cells; host or cells: HEK 293T
T4 sequence (P31421 19-872 A726S/G730I/A733T): as the sequence (P31421 19-872 C121A) above, with A103C, A708S, G712I, A715T counted along it
Description: as §2

mGluR2-P778A = target: T5, mGluR2-P778A (Rattus norvegicus, UniProt P31421, P778A); test: Calcium imaging in HEK 293 T cells; assay type: cell-based
T5 construct: we performed calcium imaging experiments with mutations in the full-length mGluR2 background; expressed in transfected cells; host or cells: HEK 293 T
T5 sequence (P31421 19-872 P778A): as the sequence (P31421 19-872 C121A) above, with A103C, P760A counted along it
Description: as §2

mGluR3-I788A = mGluR3-I788A (Rattus norvegicus, UniProt P31422, I788A); test: Calcium imaging in HEK 293 T cells; assay type: cell-based; parameters: we performed calcium imaging experiments with mutations in the full-length mGluR2 background; expressed in transfected cells; host or cells: HEK 293 T; Calcium response amplitude: scale not given here; conditions: for Calcium response amplitude: mGluR3-I788A
Sequence of mGluR3-I788A (P31422 23-879 I788A): as the sequence (P31422 23-879 S686W/F690W/G694W) above, with W664S, W668F, W672G, I766A counted along it
Description: as §2

mGluR3 = mGluR3 (Rattus norvegicus, UniProt P31422); test: Calcium imaging (G protein chimera, GCaMP6f) in HEK 293 T cells
Sequence of mGluR3 (P31422 23-879): as the sequence (P31422 23-879 S686W/F690W/G694W) above, with W664S, W668F, W672G counted along it

mGluR2-I779A = target: T6, mGluR2-I779A (Rattus norvegicus, UniProt P31421, I779A); test: Inter-TMD FRET sensor (HaloTag in ICL2), live cells; assay type: cell-based; conditions: for FRET response amplitude: mGluR2-I779A, inter-TMD FRET
T6 construct: we performed calcium imaging experiments with mutations in the full-length mGluR2 background; expressed in transfected cells; host or cells: HEK 293 T
T6 sequence (P31421 19-872 I779A): as the sequence (P31421 19-872 C121A) above, with A103C, I761A counted along it
From the text: Next, we asked how perturbing the TM6 interface would alter the conformational dynamics detected by our TMD FRET sensors.

[1] = read-out: Glutamate EC50 (micromolar), calcium imaging, Fig 3F source data
[2] = read-out: Glutamate EC50, calcium imaging, normalized to saturating (1 mM) glutamate
[3] = read-out: Glutamate EC50, calcium imaging, normalized to saturating (1 mM) glutamate, unit inferred

Sequence of mGluR3-S686A (P31422 23-879 S686A): as the sequence (P31422 23-879 S686W/F690W/G694W) above, with W664A, W668F, W672G counted along it

## N[C@@H](CCC(=O)O)C(=O)O [glutamate]
mGluR3-S686A; [1]
  EC50: 5.11 µM
mGluR3-S686A; [2]
  EC50: 5.12 ± 0.06 µM
mGluR2-C121A
  % Dimerization: 86.45% and 81.10% and 91.37% and 96.00% and 70.30% and 76.67%
mGluR2-3xTM4_W; Glutamate 100 nM
  Calcium response amplitude: 0.00
mGluR2-3xTM4_W; Glutamate 1 uM
  Calcium response amplitude: 0.00 and 0.08 and 0.04
mGluR2-3xTM4_W; Glutamate 10 uM
  Calcium response amplitude: 0.55 and 0.51
mGluR2-3xTM4_W; Glutamate 100 uM
  Calcium response amplitude: 1.00 and 0.99 and 0.76
mGluR2-3xTM4_W; Glutamate 1 mM
  Calcium response amplitude: 1.00
mGluR3-3xTM4_W; Glutamate 10 nM, replicates
  Calcium response amplitude: 0.00
mGluR3-3xTM4_W; Glutamate 100 nM, replicates
  Calcium response amplitude: 0.00
mGluR3-3xTM4_W; Glutamate 1 uM, replicates
  Calcium response amplitude: 0.09 and 0.064 and 0.00
mGluR3-3xTM4_W; Glutamate 10 uM, replicates
  Calcium response amplitude: 0.20 and 0.28 and 0.12 and 0.22
mGluR3-3xTM4_W; Glutamate 100 uM, replicates
  Calcium response amplitude: 0.41 and 0.50
mGluR3-3xTM4_W; Glutamate 1 mM
  Calcium response amplitude: 0.86
mGluR3-3xTM4_W; Glutamate 10 mM
  Calcium response amplitude: 1.00
mGluR3-3xTM4_W; [3]
  EC50: 186 ± 0.27 µM
mGluR2-3xTM4; Glutamate 1 nM
  Calcium response amplitude: 0.00
mGluR2-3xTM4; Glutamate 10 nM
  Calcium response amplitude: 0.00
mGluR2-3xTM4; Glutamate 100 nM
  Calcium response amplitude: 0.26 and 0.30 and 0.14
mGluR2-3xTM4; Glutamate 300 nM
  Calcium response amplitude: 0.49 and 0.41
mGluR2-3xTM4; Glutamate 1 uM
  Calcium response amplitude: 0.54 and 0.70 and 0.62 and 0.63 and 0.75
mGluR2-3xTM4; Glutamate 3 uM
  Calcium response amplitude: 0.98 and 0.89 and 0.90 and 0.80 and 0.78 and 1.01
mGluR2-3xTM4; Glutamate 10 uM
  Calcium response amplitude: 0.95 and 1.00 and 0.99
mGluR2-3xTM4; Glutamate 100 uM
  Calcium response amplitude: 0.96 and 0.99 and 1.00 (2×)
mGluR2-3xTM4; Glutamate 1 mM
  Calcium response amplitude: 1.00
mGluR3-3xTM4; Glutamate 100 nM
  Calcium response amplitude: 0.028 and 0.00
mGluR3-3xTM4; Glutamate 300 nM
  Calcium response amplitude: 0.11 (2×) and 0.00 (2×)
mGluR3-3xTM4; Glutamate 3 uM
  Calcium response amplitude: 0.32 and 0.20 and 0.21 and 0.35
mGluR3-3xTM4; Glutamate 10 uM
  Calcium response amplitude: 0.27 and 0.56 and 0.69
mGluR3-3xTM4; Glutamate 100 uM
  Calcium response amplitude: 0.89 and 0.81
mGluR3-3xTM4; [1]
  EC50: 11 µM
mGluR3-3xTM4; [2]
  EC50: 11 ± 0.1 µM
mGluR2-A726S-G730I-A733T; Glutamate 100 nM
  Calcium response amplitude: 0.00
mGluR2-A726S-G730I-A733T; Glutamate 3 uM
  Calcium response amplitude: 0.71 and 0.60
mGluR2-A726S-G730I-A733T; Glutamate 10 uM
  Calcium response amplitude: 0.93 and 0.97 and 0.56
mGluR2-A726S-G730I-A733T; Glutamate 100 uM
  Calcium response amplitude: 1.00
mGluR2-A726S-G730I-A733T; Glutamate 1 mM
  Calcium response amplitude: 1.00
mGluR2-P778A; Glutamate concentration 100 nM
  Calcium response amplitude: 0.00
mGluR2-P778A; Glutamate concentration 1 uM
  Calcium response amplitude: 0.48 and 0.50
mGluR2-P778A; Glutamate concentration 10 uM
  Calcium response amplitude: 0.94 and 0.87
mGluR2-P778A; Glutamate concentration 1 mM
  Calcium response amplitude: 1.00
mGluR3-I788A; Glutamate 10 nM
  Calcium response amplitude: 0.00
mGluR3-I788A; Glutamate 1 uM
  Calcium response amplitude: 0.60 and 0.66 and 0.55
mGluR3-I788A; Glutamate 10 uM
  Calcium response amplitude: 0.97 and 1.00 and 0.86
mGluR3-I788A; Glutamate 100 uM
  Calcium response amplitude: 1.00
mGluR3-I788A; Glutamate 1 mM
  Calcium response amplitude: 1.00
mGluR3-I788A; [3]
  EC50: 10.43 ± 0.1 µM
mGluR3; Glutamate 1 nM, mGluR3
  Calcium response amplitude: 0.00
mGluR3; Glutamate 1 nM, normalized to 1 mM glutamate, replicates
  Calcium response amplitude: 0.00
mGluR3; Glutamate 10 nM, mGluR3
  Calcium response amplitude: 0.00
mGluR3; Glutamate 10 nM, normalized to 1 mM glutamate, replicates
  Calcium response amplitude: 0.00
mGluR3; Glutamate 100 nM, mGluR3
  Calcium response amplitude: 0.23
mGluR3; Glutamate 100 nM, normalized to 1 mM glutamate, replicates
  Calcium response amplitude: 0.23
mGluR3; Glutamate 1 uM, mGluR3
  Calcium response amplitude: 0.61 and 0.64 and 0.67 and 0.55
mGluR3; Glutamate 1 uM, normalized to 1 mM glutamate, replicates
  Calcium response amplitude: 0.61 and 0.64 and 0.67 and 0.55
mGluR3; Glutamate 2 uM, mGluR3
  Calcium response amplitude: 0.66 and 0.77
mGluR3; Glutamate 2 uM, normalized to 1 mM glutamate, replicates
  Calcium response amplitude: 0.66 and 0.77
mGluR3; Glutamate 3 uM, mGluR3
  Calcium response amplitude: 0.83 and 0.79
mGluR3; Glutamate 3 uM, normalized to 1 mM glutamate, replicates
  Calcium response amplitude: 0.83 and 0.79
mGluR3; Glutamate 5 uM, mGluR3
  Calcium response amplitude: 0.89 and 0.95 and 0.77
mGluR3; Glutamate 5 uM, normalized to 1 mM glutamate, replicates
  Calcium response amplitude: 0.89 and 0.95 and 0.77
mGluR3; Glutamate 10 uM, mGluR3
  Calcium response amplitude: 0.99 and 0.95 and 0.92
mGluR3; Glutamate 10 uM, normalized to 1 mM glutamate, replicates
  Calcium response amplitude: 0.99 and 0.95 and 0.92
mGluR3; Glutamate 1 mM, mGluR3
  Calcium response amplitude: 1.00
mGluR3; Glutamate 1 mM, normalized to 1 mM glutamate, replicates
  Calcium response amplitude: 1.00
mGluR3; [2]
  EC50: 0.56 ± 0.06 µM
mGluR2-I779A; Glutamate 10 nM
  FRET response amplitude: 0.00
mGluR2-I779A; Glutamate 100 nM
  FRET response amplitude: 0.00
mGluR2-I779A; Glutamate 1 uM
  FRET response amplitude: 0.00
mGluR2-I779A; Glutamate 100 uM
  FRET response amplitude: 0.75 and 0.90 and 0.82
mGluR2-I779A; Glutamate 1 mM
  FRET response amplitude: 1.00
mGluR2-I779A; inter-TMD FRET sensor, right shift
  change in glutamate EC50 compared to mGluR2: two-fold
